This is an account of results in patent US10336696B2, “Bicarbazole compound, photo-curable composition, cured product thereof, curable composition for plastic lens, and plastic lens” (DIC Corporation, priority 2014, dated 2019).

SMILES strings stand for the structures.

Series [1] can be described thus: Solubility in o-phenylphenoxyethyl acrylate. The class given is physicochemical. On the set-up: key: A: Soluble; B: Insoluble. Conditions: for Solubility, 10 mass %: compound concentration 10% by mass; for Solubility, 50 mass %: compound concentration 50% by mass. The protocol:
The solubility was evaluated on the basis of whether a compound was soluble or insoluble in o-phenylphenoxyethyl acrylate. The evaluation was performed at two levels at which the compound concentration was 10% by mass and 50% by mass.

Series [2] can be described thus: Refractive index of compounds (NMP solutions, extrapolated). It is filed as physicochemical. Conditions: compound diluted with NMP, three concentrations, Abbe refractometer, 589 nm (D line). The protocol: The refractive index of each of the compounds was determined as follows. A compound was diluted with N-methylpyrrolidone (NMP) to prepare three samples having different concentrations. Liquid refractive indices of the respective solutions were measured, and the measured data was extrapolated to calculate the refractive index.
Measuring device: Abbe refractometer NRA-2T, manufactured by Atago Co., Ltd.
Measurement wavelength: 589 nm (D line)

Regarding `c1ccc2c(c1)[nH]c1ccc(-c3cccc4c3[nH]c3ccccc34)cc12` [Synthesis Example 1, 1,3′-bicarbazole], in series [1], the “Solubility, 10 mass %” value was “A” and the “Solubility, 50 mass %” value was “B”. Besides, the Liquid refractive index in series [2] was 1.76.

For the compound `C=CC(=O)OCCn1c2ccccc2c2cc(-c3cccc4c5ccccc5n(CCOC(=O)C=C)c34)ccc21` [Example 3, 9,9′-bis(acryloyloxyethyl)-1,3′-bicarbazole], in series [1], the “Solubility, 10 mass %” value was “A” and the “Solubility, 50 mass %” value was “A”. Also, the Liquid refractive index in series [2] was 1.664.

As for `c1ccc2c(c1)[nH]c1ccc(-c3ccc4[nH]c5ccccc5c4c3)cc12` [Comparative Example 2, 3,3′-bicarbazole, reference compound], in series [1], the “Solubility, 10 mass %” value is “B” and the “Solubility, 50 mass %” value was “B”. In addition, in series [2], the Liquid refractive index is on record as 1.765.

In the case of `C=Cn1c2ccccc2c2cc(-c3cccc4c5ccccc5n(C=C)c34)ccc21` [Example 2, 9,9′-divinyl-1,3′-bicarbazole], in series [1], the “Solubility, 10 mass %” value is listed as “A” and the “Solubility, 50 mass %” value is given as “A”. The Liquid refractive index in series [2] is listed as 1.735.

Consider `C=Cn1c2ccccc2c2ccccc21` [Comparative Example 1, 9-vinylcarbazole, reference compound], for which, in series [1], the “Solubility, 10 mass %” value is listed as “A” and the “Solubility, 50 mass %” value is recorded as “B”. In addition, the Liquid refractive index in series [2] is on record as 1.674.

For `C=CC(=O)n1c2ccccc2c2cc(-c3cccc4c5ccccc5n(C(=O)C=C)c34)ccc21` [Example 1, 9,9′-diacryloyl-1,3′-bicarbazole], in series [1], the “Solubility, 10 mass %” value is “A” and the “Solubility, 50 mass %” value was “B”. Also, the Liquid refractive index in series [2] is on record as 1.723.
